The record followed here is ChEMBL document CHEMBL1201862, “PubChem BioAssay data set” (2004).

Each structure is given as a SMILES string.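 Tested at 5 concentrations; 48 h exposure; 96-well plates; endpoints linearly interpolated, else capped at highest concentration. Abbreviation: GI50, concentration required for 50% inhibition of growth.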 Active and inactive are the calls of the source. No stated cut-off is given here; in the data, active = GI50 up to about 1.1 µM and inactive = higher.

Assay in all cases: NCI anticancer screen, dose series, 48 h
Test [1] deals with M14.
For test [2], the system named is DU-145.
For test [3], the system named is SNB-19.
Test [4] relates to K562.
The test system of test [5] is SR.
The subject of test [6] is NCI-H23.
Test [7] deals with CCRF-CEM.
Test [8] has as its system Hs-578T.
The test system of test [9] is HCT-116.
Test [10] has as its system EKVX.
The test system of test [11] is SN12C.
The test system of test [12] is UACC-257.
The subject of test [13] is HOP-62.
Test [14] has as its system HL-60.
Test [15] has as its system MCF7.
Test [16] concerns 786-0.
Test [17] has as its system U-251.
For test [18], the system named is OVCAR-5.
For test [19], the system named is MDA-MB-435.
The subject of test [20] is CAKI-1.

Take `CN(C)CCn1c(=O)c2ccc(NCCCN(C)CCCNc3ccc4c(=O)n(CCN(C)C)c(=O)n5c6ccc([N+](=O)[O-])cc6c(=O)c3c45)c3c(=O)c4cc([N+](=O)[O-])ccc4n(c1=O)c23`: the GI50 was 0.057 µM (active) in test [1]; < 0.01 µM (active) in test [2]; < 0.01 µM (active) in test [3]; < 0.01 µM (active) in test [4]; < 0.01 µM (active) in test [5]; < 0.01 µM (active) in test [6]. The GI50 in [7] is < 0.01 µM (active); in test [8] it was 0.0178 µM (active); in test [9] it was < 0.01 µM (active); in [10] it was 0.0411 µM (active); in [11] it was < 0.01 µM (active); in test [12], 0.069 µM (active). For the same molecule, the GI50 in test [13] is < 0.01 µM (active); in test [14] it was < 0.027 µM (active); in [15], < 0.01 µM (active); in test [16], < 0.01 µM (active); in test [17], < 0.01 µM (active); in test [18], < 0.037 µM (active). For the same molecule, the GI50 was < 0.0173 µM (active) in [19] and < 0.033 µM (active) in [20].

Consider `N#CC1(C2SCC[S+]2[O-])C2=C(C(=O)c3ccccc3C2=O)N2CCCC21` (stereo not given), for which the GI50 in test [1] was 1.17 µM (inactive); in test [2], 2.18 µM (inactive); in test [3] it was 6.35 µM (inactive); in test [4] it was 3.38 µM (inactive); in test [5], 0.935 µM (active); in test [6], 1.11 µM (active). Besides, the GI50 was 2.94 µM (inactive) in test [7]; 3.46 µM (inactive) in [8]; 2 µM (inactive) in test [9]; 4.8 µM (inactive) in test [10]; 2.38 µM (inactive) in test [11]; 1.36 µM (inactive) in test [12]. The GI50 in [13] is 5.28 µM (inactive); in test [14], 1.55 µM (inactive); in [15] it was 1.63 µM (inactive); in test [16] it was 4.21 µM (inactive); in [17] it was 3.4 µM (inactive); in [18] it was 3.78 µM (inactive). Moreover, the GI50 in [19] is 0.497 µM (active); in test [20], 4.42 µM (inactive).

As for `NC(=O)c1ncn(C2C=CC(CP(=O)(O)O)C2)c1N` (stereo not given), the GI50 in test [1], in test [2], in test [3], in [4], in [5] and in [6] was > 100 µM (inactive) throughout. Further, the GI50 in [7], in test [8], in test [9], in test [10], in [11] and in [12] was > 100 µM (inactive) each time. In addition, the GI50 in test [13], in [14], in test [15], in test [16], in test [17] and in test [18] was > 100 µM (inactive) each time. Moreover, the GI50 in test [19] and in test [20] was > 100 µM (inactive) throughout.
